Test system: swine muscle cells
Experiment: Excipient testing in pigs: X-gal staining of muscle after IM injection of β galactosidase plasmid DNA with excipient
Type: in vivo
Details: excipient combined with plasmid DNA containing a β galactosidase gene; conclusion
Experimental: Solutions of sucrose (3-7%), DMSO (18-22%), Tween 80 (0.03-0.07%), or E. coli recombinant modified labile toxin (rmLT) (23-27 ug/dose) can be formulated at the desired final concentration in 150 mM sodium phosphate, pH 7.2, containing 1 mg/ml of the plasmid DNA of interest. Solutions can be assembled by dissolving the excipients and plasmid DNA in 150 mM sodium phosphate, pH 7.2 at the desired concentration. Alternatively, the preparations can be prepared as sub-solution, at twice their final concentration in 150 mM sodium phosphate, pH 7.2, and then mixed in equal volumes immediately prior to administration. The SEPA-DNA solution is prepared by adding 1 part of the respective DNA solution, at 5 mg/ml, to 4 parts SEPA.
Table 1 contains the scoring results of X-gal staining in swine muscles 5 days following injection of the various DNA and excipients solutions.
Each pig received a total of 6 injections. All injections administered in the longissimus dorsi muscle (3/side). Injections were approximately 2.5″ lateral to the spine. On each side of the pig, one site was located at approximately the last rib, and the two others were at approximately 6″ and 12″ cranial (towards the nose) from the last rib. Hair was clipped in an area approximately 1″ square to aid identification of injection sites. Injections were made in the center of each shaved area, at approximately 90′ angle to the skin surface. The pigs were restrained briefly in a self-locking head catch chute and the test article administered IM using a 1.5″ long 18 gauge needle attached to a 3 ml syringe. Each test article (treatment) was administered in a total of 3 injection sites (each on a different pig). The total volume of each injection was 1 ml.
Pigs were euthanized 5 days following administration of the respective DNA and excipient solution. A section of tissue approximately 1″ cubed, surrounding the point of entry of the needle, was excised. […] The amount of staining was determined by visual observation using a subjective scale from “No Staining” through a gradation to “Yes++++”. […]

Compound | DNA uptake by swine muscle cells, as indicated by tissue staining
CCCCCCCCCC1OCCO1 [SEPA solution, 2-n-Nonyl-1,3-dioxolane] | enhanced DNA uptake
OC[C@H]1O[C@@](CO)(O[C@H]2O[C@H](CO)[C@@H](O)[C@H](O)[C@H]2O)[C@@H](O)[C@@H]1O [5% Sucrose, sucrose] | enhanced DNA uptake
C[S+](C)[O-] [20% Dimethyl sulfoxide, dimethyl sulfoxide] | enhanced DNA uptake
